# Reference: US11643439B2, “Multi-target compound with anticoagulation and antiplatelet activity, preparation method therefor, and use thereof” (SHAANXI MICOT TECHNOLOGY LIMITED COMPANY, priority 2015, dated 2023)
# Marks after values point to notes of the source that are not given here.
# Columns and labels:
# [1] = test system: blood coagulation function; experiment: PT in rabbits, intravenous maintenance administration; type: in vivo, rabbit
# Experimental: (§1) 2. Grouping and administration: 10 rabbits were randomly divided into 3 groups, 2 to 3 rabbits per group. 1) Sham operation group (NS): Intravenous injection of the same volume of physiological saline, with the same operation method as above; 2) polypeptide 2 administration group: 8.0 mg/kg+20.0 mg/kg/h; 3) positive control enoxaparin group: 50 U/kg+150 U/kg/h. According to the body weight in kilograms of the rabbits, the first dose of the drug to be tested was dissolved in 2 mL of physiological saline for single bolus injection. The maintaining dose was dissolved in 9 ml of physiological saline, and placed in a double-channel micro-injection pump, which was dripped off within 90 minutes at a dripping speed of […]. The sham operation group was administered with the same volume of physiological saline.
# (§2) 4.2 Determination of blood coagulation function: Blood samples were taken and the blood function (PT, APTT) was determined at 0 min before administration, at points of 30 min, 60 min, 90 min after administration, and at points of 60 min, 120 min and 180 min after termination of administration, using a platelet-aggregation coagulation factor analyzer. Blood samples were centrifuged at 3510 rpm for 8 min to obtain platelet poor plasma (PPP). Reagent reconstruction and preservation were performed according to the operation requirements of the kit. Immediately after each blood sample was placed into a test cup and then added with PT, TT and APTT reagents, the test was started. After the test was completed, results were recorded.
# platelet aggregation = experiment: Platelet aggregation in rabbits, intravenous maintenance administration; type: in vivo, rabbit
# Experimental: as §1
# (§3) 3.1 Surgery preparation of rabbits: Rabbits were sent to the laboratory for accommodation for one day, and then screened at first. Blood samples were taken from arteries within ears, which were subjected to blood routine analysis and APTT assay, and the rabbits with normal blood hemateikon and APTT between 16s to 28s were selected for experiments. The rabbits to be tested were fasted with free access to water for the night before the experiment. The rabbits were anesthetized with intravenous injection of 3% sodium pentobarbital solution at 1 ml/kg, fixed in the supine position, and then, the common carotid artery at one side, external jugular vein, femoral artery at one side, femoral vein, and forelimb vein at one side were isolated. The forelimb vein was subjected to intubation for administration; the left femoral vein was subjected to intubation for blood collection to determine the platelet aggregation rate; the femoral artery was used for the establishment of an arterial thrombosis model; the common carotid artery and external jugular vein were used for the establishment of an arterial and venous bypass thrombosis model.
# 4.1 Platelet aggregation rate: At points of 0 min before administration; 30 min. 60 min, 90 min for administration; 60 min, 120 min, 180 min after administration was terminated, 2.7 ml blood samples were taken from the femoral vein, rapidly injected into a centrifuge tube containing 0.3 ml of 3.8% sodium citrate solution, and fully mixed well. The resulted blood samples were centrifuged at 810 rpm (100 g) for 8 min to obtain PRP, and was centrifuged at 3500 rpm (1863 g) for 8 min to obtain PPP which was used to determine platelet aggregation.
# Blood samples were taken before administration (0 min), 5 min and 15 min after administration, respectively, to determine the platelet aggregation rate which was used to calculate the inhibitory rate of platelet aggregation with a calculation equation as follows: […]
# [2] = test system: blood coagulation function; experiment: APTT in rabbits, intravenous maintenance administration; type: in vivo, rabbit
# Experimental: as §1, §2
# [3] = test system: blood coagulation function; experiment: TT in rabbits, intravenous maintenance administration; type: in vivo, rabbit
# Experimental: as §1, §2
# [4] = test system: FeCl3-induced femoral artery thrombosis; experiment: FeCl3-induced femoral artery thrombosis in rabbits, intravenous maintenance administration; type: in vivo, rabbit
# Experimental: as §1, §3
# 3.2 Arterial thrombosis (AT) model: A small piece of a filter paper (1 cm×1.5 cm) absorbed with 50% FeCl3 solution was applied onto the right femoral artery while administration, below which a small piece of a plastic film (2.5 cm×2.0 cm) was placed to protect surrounding tissues. After 10 minutes, the filter paper was removed, and then, the blood vessels and local tissues were rinsed with warm physiological saline, and the covered blood vessels were cut off. The thrombus which attached to the blood vessel walls was peeled off to be weighed on a tin foil for its wet weight, and then kept overnight at room temperature and weighed for its dry weight.
# 3.3 Experimental Procedures: The femoral arteries in the […] and both sides in the rabbits were isolated and stabilized for 10 minutes before the administration was started. An AT model was established by covering the femoral artery with a 50% FeCl3 filter paper while administration, and the filter paper was removed after 15 minutes. Observation was continued for 120 min after administration until the experiment was completed.
# 4.4 Thrombus weight: After the experiment was completed, the segment of the blood vessels in which there had been thrombus formation was cut off, weighed for the wet weight, and then kept overnight at room temperature and weighed for the dry weight. The thrombosis inhibitory rate was calculated with a calculation equation as follows: […]
# [5] = test system: thrombin-induced pulmonary embolism; experiment: Thrombin-induced pulmonary embolism in mice; type: in vivo, mouse; details: thrombin 1500 u/kg, tail iv 250 IU/kg
# [6] = iv 8.0 + 20.0 (mg/kg+mg/kg/h), Administration 30 min
# [7] = iv 8.0 + 20.0 (mg/kg+mg/kg/h), Administration 60 min
# [8] = iv 8.0 + 20.0 (mg/kg+mg/kg/h), Administration 90 min
# [9] = iv 8.0 + 20.0 (mg/kg+mg/kg/h), Before administration
# [10] = iv 8.0 + 20.0 (mg/kg+mg/kg/h), Termination 60 min
# [11] = iv 8.0 + 20.0 (mg/kg+mg/kg/h), Termination 120 min
# [12] = iv 8.0 + 20.0 (mg/kg+mg/kg/h), Termination 180 min
# [13] = iv 8.0 + 20.0 (mg/kg + mg/kg/h)
# [14] = iv 50 U + 150 U, Administration 30 min
# [15] = iv 50 U + 150 U, Administration 60 min
# [16] = iv 50 U + 150 U, Administration 90 min
# [17] = iv 50 U + 150 U, Before administration
# [18] = iv 50 U + 150 U, Termination 60 min
# [19] = iv 50 U + 150 U, Termination 120 min
# [20] = iv 50 U + 150 U, Termination 180 min
substance,measurement,setting,value
D-Phe Pro Arg Pro Gly Gly Gly Gly Asn Gly Asp Phe Glu Glu Ile Pro Glu Glu Tyr Leu Glu Ala Ala Ala Lys Cys Har Gly Asp Trp Pro Cys [Polypeptide 2],PT,[1]; [6],12.7 ± 0.5 S
same,PT,[1]; [7],9.4 ± 2.0 S
same,PT,[1]; [8],11.6 ± 1.3 S
same,PT,[1]; [9],7.7 ± 1.8 S
same,PT,[1]; [10],7.7 ± 0.0 S
same,PT,[1]; [11],7.1 ± 1.8 S
same,PT,[1]; [12],7.4 ± 1.3 S
same,inhibitory rate of platelet aggregation,"platelet aggregation; iv 8.0 + 20.0 (mg/kg + mg/kg/h), 60 min after termination",14.1 ± 3.5%
same,inhibitory rate of platelet aggregation,"platelet aggregation; iv 8.0 + 20.0 (mg/kg + mg/kg/h), 120 min after termination",7.5 ± 1.8%
same,inhibitory rate of platelet aggregation,"platelet aggregation; iv 8.0 + 20.0 (mg/kg + mg/kg/h), 180 min after termination",47.5 ± 2.5%
same,inhibitory rate of platelet aggregation,"platelet aggregation; iv 8.0 + 20.0 (mg/kg + mg/kg/h), Administration for 30 min",61.0 ± 14.1%
same,inhibitory rate of platelet aggregation,"platelet aggregation; iv 8.0 + 20.0 (mg/kg + mg/kg/h), Administration for 60 min",72.1 ± 9.6%
same,inhibitory rate of platelet aggregation,"platelet aggregation; iv 8.0 + 20.0 (mg/kg + mg/kg/h), Administration for 90 min",55.8 ± 7.7%
same,APTT,[2]; [6],38.0 ± 2.3 S
same,APTT,[2]; [7],32.5 ± 1.0 S
same,APTT,[2]; [8],34.1 ± 3.7 S
same,APTT,[2]; [9],22.7 ± 1.7 S
same,APTT,[2]; [10],35.7 ± 14.0 S
same,APTT,[2]; [11],33.2 ± 2.7 S
same,APTT,[2]; [12],23.3 ± 1.6 S
same,TT,[3]; [9],26.8 ± 15.5 S
same,TT,[3]; [11],150.6 ± 3.5 S
same,TT,[3]; [12],28.2 ± 1.9 S
same,Thrombus inhibitory rate Dry weight,[4]; [13],84.9 ± 2.3%
same,Thrombus inhibitory rate Wet weight,[4]; [13],75.6 ± 3.8%
same,Thrombus weight Dry weight,[4]; [13],3.2 ± 2.0 mg
same,Thrombus weight Wet weight,[4]; [13],14.2 ± 10.2 mg
Enoxaparin,PT,[1]; [14],10.4 S
same,PT,[1]; [15],10.4 S
same,PT,[1]; [16],11.3 S
same,PT,[1]; [17],9.4 S
same,PT,[1]; [18],8.2 S
same,PT,[1]; [19],8.1 S
same,PT,[1]; [20],7.6 S
same,inhibitory rate of platelet aggregation,"platelet aggregation; iv 50 U + 150 U, 60 min after termination",0.00%
same,inhibitory rate of platelet aggregation,"platelet aggregation; iv 50 U + 150 U, 120 min after termination",41.9%
same,inhibitory rate of platelet aggregation,"platelet aggregation; iv 50 U + 150 U, Administration for 30 min",26.7%
same,inhibitory rate of platelet aggregation,"platelet aggregation; iv 50 U + 150 U, Administration for 60 min",0.00%
same,inhibitory rate of platelet aggregation,"platelet aggregation; iv 50 U + 150 U, Administration for 90 min",35.27%
same,APTT,[2]; [14],32.4 S
same,APTT,[2]; [15],36.2 S
same,APTT,[2]; [16],38.3 S
same,APTT,[2]; [17],25.7 S
same,APTT,[2]; [18],30.5 S
same,APTT,[2]; [19],62.1 S
same,APTT,[2]; [20],41.6 S
same,TT,[3]; [14],>180 s
same,TT,[3]; [15],>180 s
same,TT,[3]; [16],18.9 S
same,TT,[3]; [17],20.5 S
same,TT,[3]; [18],21.0 S
same,TT,[3]; [19],29.0 S
same,TT,[3]; [20],24.0 S
same,Thrombus inhibitory rate Dry weight,[4]; iv 50 U + 150 U (U/kg+U/kg/h),10 ± 4.2%
same,Thrombus inhibitory rate Wet weight,[4]; iv 50 U + 150 U (U/kg+U/kg/h),40 ± 5.7%
same,Thrombus weight Dry weight,[4]; iv 50 U + 150 U (U/kg+U/kg/h),2.3 ± 2.1 mg
same,Thrombus weight Wet weight,[4]; iv 50 U + 150 U (U/kg+U/kg/h),3.9 ± 4.0 mg
same,Number of platelets,[5],459.83 ± 49.66 ×10^9
same,Mortality rate,[5]; within 15 min,10**^## %
